Test [1] has as its target isolated recombinant JAK1 kinase domain (Homo sapiens (Human), UniProt P23458). The test can be described thus: JAK1 enzyme assay (Caliper LabChip, Ki). In kind it is biochemical. As for the experimental part:
(§1) JAK Enzyme Assays were carried out as follows:
(§2) The activity of the isolated recombinant JAK1 and JAK2 kinase domain was measured by monitoring phosphorylation of a peptide derived from JAK3 (Val-Ala-Leu-Val-Asp-Gly-Tyr-Phe-Arg-Leu-Thr-Thr, fluorescently labeled on the N-terminus with 5-carboxyfluorescein) using the Caliper LabChip® technology (Caliper Life Sciences, Hopkinton, Mass.). […] Reactions were incubated at 22° C. in 384-well polypropylene microtiter plates for 30 minutes and then stopped by addition of 25 μL of an EDTA containing solution (100 mM HEPES buffer (pH 7.2), 0.015% Brij-35, 150 mM EDTA), resulting in a final EDTA concentration of 50 mM. After termination of the kinase reaction, the proportion of phosphorylated product was determined as a fraction of total peptide substrate using the Caliper LabChip® 3000 according to the manufacturer's specifications. Ki values were then determined using the Morrison tight binding model (Morrison, J. F., Biochim. Biophys. Acta. 185:269-296 (1969); William, J. W. and Morrison, J. F., Meth. Enzymol., 63:437-467 (1979)) modified for ATP-competitive inhibition [Ki=Ki,app/(1+[ATP]/Km,app)].

Test [2] concerns the target isolated recombinant JAK2 kinase domain (Homo sapiens (Human), UniProt O60674). The test can be described thus: JAK2 enzyme assay (Caliper LabChip, Ki). In kind it is biochemical. As for the experimental part:
as §1
as §2, with “([…]” for “(Val-Ala-Leu-Val-Asp-Gly-Tyr-Phe-Arg-Leu-Thr-Thr,”, “specifications.” for “specifications. Ki values were then determined using the Morrison tight binding model (Morrison, J. F., Biochim. Biophys. Acta. 185:269-296 (1969); William, J. W. and Morrison, J. F., Meth. Enzymol., 63:437-467 (1979)) modified for ATP-competitive inhibition [Ki=Ki,app/(1+[ATP]/Km,app)].”

Where two headings read alike, the source gives them in different places.

Here are results for 36 compounds from patent US11731943B2, “Therapeutic compounds, compositions and methods of use thereof” (priority 2016, dated 2023).

Sequence of isolated recombinant JAK2 kinase domain (O60674 849-1124): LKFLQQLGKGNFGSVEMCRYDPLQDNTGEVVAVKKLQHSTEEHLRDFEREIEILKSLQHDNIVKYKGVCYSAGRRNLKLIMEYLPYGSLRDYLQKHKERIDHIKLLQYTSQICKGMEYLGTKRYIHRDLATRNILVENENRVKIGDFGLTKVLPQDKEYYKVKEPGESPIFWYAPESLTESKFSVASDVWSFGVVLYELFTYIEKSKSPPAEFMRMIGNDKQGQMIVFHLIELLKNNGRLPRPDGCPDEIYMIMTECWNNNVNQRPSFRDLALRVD
Sequence of isolated recombinant JAK1 kinase domain (P23458 875-1153): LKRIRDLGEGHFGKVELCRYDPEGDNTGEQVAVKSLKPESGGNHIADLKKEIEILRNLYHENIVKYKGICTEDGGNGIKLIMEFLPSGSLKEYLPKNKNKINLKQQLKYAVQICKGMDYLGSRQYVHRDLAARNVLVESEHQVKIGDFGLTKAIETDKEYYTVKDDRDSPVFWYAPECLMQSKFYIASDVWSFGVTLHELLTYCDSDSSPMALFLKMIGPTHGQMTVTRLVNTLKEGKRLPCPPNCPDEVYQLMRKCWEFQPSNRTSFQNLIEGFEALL

As for `N#CCC1(n2cc(C(N)=O)c(NC(=O)C3CC3)n2)CCCCC1` [Example 33], the inhibitory constant (Ki) (commonly the equilibrium dissociation constant of an inhibitor or competing ligand from its target) in test [1] (read-out: JAK1 Ki) stood at 15.6 nM; in test [2] it was 76.5 nM.

As to `N#CCC1(n2cc(C(N)=O)c(NC(=O)C3CC34CC4)n2)CCN(CC(F)(F)F)CC1` (stereo not drawn) [Example 25], the Ki in test [1] (read-out: JAK1 Ki) is 81.2 nM; in test [2], greater than 319 nM.

With `N#CC[C@]1(n2cc(C(N)=O)c(NC(=O)C3CC3)n2)CC[C@@H](NCc2cccc(F)c2)CC1` [Example 114], the results for the inhibition constant Ki in test [1] and in test [2] were greater than 562 nM and greater than 319 nM, respectively.

For the compound `N#CCC1(n2cc(C(N)=O)c(NC(=O)C3CC3)n2)CCN(Cc2ccccc2Br)CC1` [Example 50], the inhibition constant Ki in test [1] (read-out: JAK1 Ki) turned out to be 6.2 nM; in test [2], 66.4 nM.

As to `N#CCC1(n2cc(C(N)=O)c(NC(=O)C3CC3)n2)CCN(Cc2ccc(OC(F)(F)F)cc2)CC1` [Example 49], the Ki in test [1] (read-out: JAK1 Ki) turned out to be 23.3 nM; in test [2], 190 nM.

As to `CC(C)(C)OC(=O)N[C@H]1CC[C@@](CC#N)(n2cc(C(N)=O)c(NC(=O)C3CC3)n2)CC1` [Example 36], the inhibition constant Ki in test [1] was greater than 562 nM; in test [2], greater than 319 nM.

`N#CC[C@]1(n2cc(C(N)=O)c(NC(=O)C3CC3)n2)CC[C@@H](NC2CCOCC2)CC1` [Example 104]: the Ki in test [1] is greater than 562 nM; in test [2], greater than 319 nM.

On to `N#CCC1(n2cc(C(N)=O)c(NC(=O)C3CC3)n2)CCN(Cc2ccc(-n3ccnc3)cc2)CC1` [Example 85], for which the Ki in test [1] (read-out: JAK1 Ki) stood at 45.1 nM; in test [2], 170 nM.

For `N#CC[C@]1(n2cc(C(N)=O)c(NC(=O)C3CC3)n2)CC[C@@H](NCc2ccccc2F)CC1` [Example 112], the values for the Ki in test [1] and in test [2] were greater than 562 nM and greater than 319 nM, respectively.

On to `N#CC[C@]1(n2cc(C(N)=O)c(NC(=O)C3CC3)n2)CC[C@@H](NCc2ccccc2)CC1` [Example 110], for which the Ki in test [1] came to 5.3 nM; in test [2], 254 nM.

As for `N#CCC1(n2cc(C(N)=O)c(NC(=O)C3CC3)n2)CCN(Cc2ccc(-n3cnc4ccccc43)cc2)CC1` [Example 88], the Ki was 26.3 nM in test [1] (read-out: JAK1 Ki) and 150 nM in test [2].

As for `N#CCC1(n2cc(C(N)=O)c(NC(=O)C3CC3)n2)CCN(Cc2ccccc2-c2ccccc2)CC1` [Example 38], the Ki was 8.1 nM in test [1] (read-out: JAK1 Ki) and 107 nM in test [2].

Regarding `N#CC[C@]1(n2cc(C(N)=O)c(NC(=O)C3CC3)n2)CC[C@@H](NCCC(F)(F)F)CC1` [Example 126], the Ki in test [1] was 188 nM; in test [2], greater than 319 nM.

Take `N#CC[C@]1(n2cc(C(N)=O)c(NC(=O)C3CC3)n2)CC[C@@H](NCc2ccc(Cl)cc2)CC1` [Example 120]: the results for the inhibitory constant (Ki) in test [1] and in test [2] were 12 nM and 115 nM, respectively.

`CN(CC(F)(F)F)[C@H]1CC[C@@](CC#N)(n2cc(C(N)=O)c(NC(=O)C3CC3)n2)CC1` [Example 130]: the Ki was greater than 562 nM in test [1] and greater than 319 nM in test [2].

`N#CCC1(n2cc(C(N)=O)c(NC(=O)[C@H]3C[C@H]3F)n2)CCN(CC(F)(F)F)CC1` [Example 29]: the Ki in test [1] (read-out: JAK1 Ki) was found to be 10.1 nM; in test [2] it was 11.9 nM.

For the compound `N#CCC1(n2cc(C(N)=O)c(NC(=O)C3CC3)n2)CCN(Cc2cccc(NS(=O)(=O)c3ccccc3)c2)CC1` [Example 74], the Ki in test [1] (read-out: JAK1 Ki) is 6.1 nM; in test [2], 58.7 nM.

For the compound `N#CCC1(n2cc(C(N)=O)c(NC(=O)C3CC3)n2)CCN(Cc2ccc(-c3ccn(C(F)(F)F)n3)cc2)CC1` [Example 83], the results for the Ki in test [1] (read-out: JAK1 Ki) and in test [2] were 16.1 nM and 313 nM, respectively.

Take `N#CCC1(n2cc(C(N)=O)c(NC(=O)C3CC3)n2)CCN(Cc2ccccc2OC(F)(F)F)CC1` [Example 47]: the Ki in test [1] (read-out: JAK1 Ki) was found to be 34.1 nM; in test [2], 250 nM.

As for `N#CC[C@]1(n2cc(C(N)=O)c(NC(=O)C3CC3)n2)CC[C@H](NCc2cccc(C#N)c2)CC1` [Example 123], the values for the inhibition constant Ki in test [1] and in test [2] were greater than 562 nM and greater than 319 nM, respectively.

For the compound `N#CC[C@]1(n2cc(C(N)=O)c(NC(=O)C3CC3)n2)CC[C@@H](NC2CCC(F)(F)CC2)CC1` [Example 175, 1-[1-(cyanomethyl)-4-[(4,4-difluorocyclohexyl)amino]cyclohexyl]-3-(cyclopropanecarbonylamino) pyrazole-4-carboxamide], the values for the Ki in test [1] and in test [2] were 14.1 nM and 321 nM, respectively.

In the case of `N#CCC1(n2cc(C(N)=O)c(NC(=O)C3CC3)n2)CCN(Cc2cccc(I)c2)CC1` [Example 54], the inhibition constant (Ki) in test [1] (read-out: JAK1 Ki) worked out at 10.7 nM; in test [2], 102 nM.

Regarding `N#CCC1(n2cc(C(N)=O)c(NC(=O)[C@H]3CC34CCC4)n2)CCN(CC(F)(F)F)CC1` [Example 31], the Ki was 96.4 nM in test [1] (read-out: JAK1 Ki) and 189 nM in test [2].

On to `CC1(C)CN([C@H]2CC[C@@](CC#N)(n3cc(C(N)=O)c(NC(=O)C4CC4)n3)CC2)C1` [Example 106], for which the Ki in test [1] turned out to be 23.3 nM; in test [2], 333 nM.

For `COc1cccc(CN2CCC(CC#N)(n3cc(C(N)=O)c(NC(=O)C4CC4)n3)CC2)c1` [Example 42], the inhibitory constant (Ki) in test [1] (read-out: JAK1 Ki) turned out to be 7.8 nM; in test [2], 94.9 nM.

Regarding `N#CC[C@]1(n2cc(C(N)=O)c(NC(=O)C3CC3)n2)CC[C@H](NCc2ccc(F)cc2)CC1` [Example 115], the inhibitory constant (Ki) is 21.9 nM in test [1] and 300 nM in test [2].

With `N#CCC1(n2cc(C(N)=O)c(NC(=O)C3CC3)n2)CCN(C(=O)C2CC(F)(F)C2)CC1` [Example 168, 1-[4-(cyanomethyl)-1-(3,3-difluorocyclobutanecarbonyl)-4-piperidyl]-3-(cyclopropanecarbonylamino) pyrazole-4-carboxamide], the figures for the Ki in test [1] (read-out: JAK1 Ki) and in test [2] were 7.5 nM and 93.3 nM, respectively.

Consider `N#CC[C@]1(n2cc(C(N)=O)c(NC(=O)C3CC3)n2)CC[C@H](N2CC(F)(F)C2)CC1` [Example 179, 1-[1-(cyanomethyl)-4-(3,3-difluoroazetidin-1-yl)cyclohexyl]-3-(cyclopropanecarbonylamino) pyrazole-4-carboxamide], for which the results for the inhibition constant (Ki) in test [1] and in test [2] were greater than 562 nM and greater than 319 nM, respectively.

For the compound `N#CC[C@]1(n2cc(C(N)=O)c(NC(=O)C3CC3)n2)CC[C@@H](NCc2ccc(F)cc2)CC1` [Example 116], the inhibition constant Ki in test [1] was 164 nM; in test [2], greater than 319 nM.

Turning to `N#CCC1(n2cc(C(N)=O)c(NC(=O)C3CC3)n2)CCN(Cc2cccc(SC(F)(F)F)c2)CC1` [Example 67], the Ki in test [1] (read-out: JAK1 Ki) is 100 nM; in test [2], greater than 319 nM.

Take `N#CCC1(n2cc(C(N)=O)c(NC(=O)C3CC3)n2)CCN(Cc2ccc(SC(F)(F)F)cc2)CC1` [Example 68]: the figures for the inhibition constant Ki in test [1] (read-out: JAK1 Ki) and in test [2] were 39 nM and greater than 319 nM, respectively.

As for `N#CCC1(n2cc(C(N)=O)c(NC(=O)[C@H]3C[C@@H]3C(F)(F)F)n2)CCN(CC(F)(F)F)CC1` [Example 27], the inhibitory constant (Ki) turned out to be 102 nM in test [1] (read-out: JAK1 Ki) and 781 nM in test [2].

Consider `N#CCC1(n2cc(C(N)=O)c(NC(=O)C3CC3)n2)CCN(Cc2cccc(NS(=O)(=O)C(F)(F)F)c2)CC1` [Example 93], for which the inhibition constant Ki in test [1] (read-out: JAK1 Ki) is 72.1 nM; in test [2] it was greater than 319 nM.

With `N#CC[C@]1(n2cc(C(N)=O)c(NC(=O)C3CC3)n2)CC[C@H](NCc2ccc(C#N)cc2)CC1` [Example 121], the Ki in test [1] worked out at 14.6 nM; in test [2], 282 nM.

Consider `CS(=O)(=O)c1cccc(CN2CCC(CC#N)(n3cc(C(N)=O)c(NC(=O)C4CC4)n3)CC2)c1` [Example 70], for which the results for the inhibition constant Ki in test [1] (read-out: JAK1 Ki) and in test [2] were 31 nM and greater than 319 nM, respectively.

`N#CCC1(n2cc(C(N)=O)c(NC(=O)C3CC3)n2)CCN(Cc2cccc(-c3ccccc3)c2)CC1` (racemic) [Example 37]: the inhibitory constant (Ki) in test [1] was 34.6 nM; in test [2], 268 nM.
